The subject of test [1] is dermal fibroblasts obtained from explanted normal human skin. The experiment in a line: in-vitro anti-stress test under UV activity (LDH). The class given is cell-based. Particulars: control group = 100%, mean of 5 tests. The method, then: In this test, a culture of dermal fibroblasts obtained from explanted normal human skin is subjected to UV-induced stress. The amounts of the enzyme lacticodes-hydrogenase (LDH) produced as a consequence of the aforesaid stress are proportional to the cell damage caused. The culture medium contained, for example, 3 wt. % of glycogen (Dermo-saccharides GY®), and a series of control tests without the aforesaid additive was carried out for comparative purposes.

In test [2] the test system is cell homogenate of epithelial cells. The experiment in a line: oxygraphy: stimulation of oxygen consumption. The class given is cell-based. Particulars: control = 100%. From the text:
Another synergy could be observed with regard to oxygraphy, i.e. the stimulation of the oxygen consumption of a cell homogenate of epithelial cells.

As to `CN(CC(=O)O)C(=N)N` [creatine, N-carbamidoyl-N-methylglycine], the “protection of cells after UV radiation” value in test [1] (2 wt. % creatine in culture liquid) was found to be 110%. Also, in test [2] (2 wt. % creatine added to control liquid (buffer)), the oxygen consumption is given as 119%.

Consider glycogen, for which the “protection of cells still alive after UV radiation” value in test [1] (3 wt. % glycogen in culture medium, 4 days after UV radiation) was determined as 128%. The oxygen consumption in test [2] (3 wt. % glycogen added to control liquid (buffer)) came to 135%.

The values above are taken from patent publication US7217423B2, “Revitalising active complex for the skin” (Coty B.V., priority 2001, dated 2007).
